Our source for the EC50 values is ChEMBL document CHEMBL5728170, “Substituted pyrrolizine compounds and uses thereof” (2020).

This assay in a line: HBV DNA Quantification Assay: A HepG2 cell line overexpressing the HBV virus attachment receptor sodium-taurocholate cotransporting polypeptide (NTCP) was grown to confluency in DMEM growth medium, Dulbecco's Modified Eagle Medium without sodium pyruvate (Life Technologies, Rockville, Md.) supplemented with 10% FBS (Thermo Scientific, Waltham, Md.), 1% penicillin/streptomycin (Life Technologies, Rockville, Md.) and 2 mM L-glutamine (Life Technologies, Rockville, Md.) in T175 flasks. Cells were infected with HBV AD38 viral particles (Texcell, Frederick, USA) at 4000 genome equivalents per cell. After allowing viral infection to take place for 4 days, the infected cells were harvested from the flasks by trypsinization, washed twice with OptiMEM (Life Technologies, Rockville, Md.) and re-suspended in DMEM containing 2% FBS and 1% DMSO at a density of 0.25E6 cells/ml. Infected cells were seeded on 384 well collagen coated plates (Greiner, Austria) at a density of 20,000 cells/well containing serially diluted compounds of the present disclosure or DMSO (0.5%) in a final volume of 80 μl. The assay plates were incubated for a period of 5 days and the antiviral activity of the test compounds were assayed by detecting the presence of HBV DNA in the culture supernatant using the QuantiGene™ 2.0 nucleic acid quantification kit (Affymetrix, Santa Clara, Calif.).The culture supernatant was harvested and treated with lysis buffer containing Proteinase K (Affymetrix, Santa Clara, Calif.). The supernatant was incubated with HBV viral DNA specific probes (Affymetrix, Santa Clara, Calif.) for 30 minutes at 55° C. This was followed by addition of 0.2M NaOH for 30 minutes at room temperature to denature the DNA, followed by addition of Neutralization buffer (Affymetrix, Santa Clara, Calif.). The resulting lysed and neutralized supernatant was then added to QuantiGene™ 2.0 384 well plates coated with capture oligonucleotides and incubated overnight at 55° C. The HBV specific probe set consists of Capture Extender oligonucleotides (CE's) and blocking probes. Following the overnight incubation, the wells were incubated for one hour sequentially with a Pre-Amplifier, Amplifier and Labeled probes conjugated to alkaline phosphatase with a wash step between incubations. After the final wash step, the alkaline phosphatase substrate (Luminol APS5) was added and the resulting luminescence signal was read in an EnVision Multilabel Plate Reader (PerkinElmer, Santa Clara, Calif.). The EC50 values were calculated from the fit of the dose-response curves to a four-parameter equation.

SMILES strings stand for the structures.

As for `Cc1c(C(=O)C(=O)NC2(C(=O)N3CC4(C3)CN(S(C)(=O)=O)C4)CC(F)(F)C2)c2n(c1C(=O)Nc1ccc(F)c(C#N)c1)CCC2`, the EC50 is 112 nM. With `Cc1c(C(=O)C(=O)NC2(C(=O)N3CC4(COC4)C3)CC(F)(F)C2)c2n(c1C(=O)Nc1ccc(F)c(C#N)c1)CCC2`, the concentration for a half-maximal effect (EC50) is 32.3 nM.

With `CC(NC(=O)C(=O)c1c(Cl)c(C(=O)Nc2ccc(F)c(C#N)c2)n2c1CCC2)C(F)(F)F` (centres undefined), the EC50 was 27.1 nM. As to `CNC(=O)C1(NC(=O)C(=O)c2c(C)c(C(=O)OC)n3c2C[C@H]2C[C@H]23)CC(F)(F)C1`, the EC50 is 8.8 nM.

The term EC50 denotes the concentration that produces a half-maximal response.
